Laboratory results: patent US20090176817A1, “Method of Treatment of Diarrhea-Predominant Irritable Bowel Syndrome in a Subject” (priority 2005, published 2009)

System: diarrhea-predominant IBS subjects
Test: Study S241.3.009: weekly diary questions on adequate relief
Type: in vivo, human
Settings: 2 mg TID, ITT; for Number of months a subject was a responder during Months 1 to 3: IBS symptoms, One month / Number of months a subject was a responder during Months 1 to 3: IBS symptoms, Three months / Number of months a subject was a responder during Months 1 to 3: IBS symptoms, Two months / Number of months a subject was a responder during Months 1 to 3: IBS symptoms, Zero months / Number of months a subject was a responder during Months 1 to 3: Abdominal pain/discomfort, One month / Number of months a subject was a responder during Months 1 to 3: Abdominal pain/discomfort, Three months / Number of months a subject was a responder during Months 1 to 3: Abdominal pain/discomfort, Two months / Number of months a subject was a responder during Months 1 to 3: Abdominal pain/discomfort, Zero months / Number of months a subject was a responder during Months 1 to 3: Abnormal bowel habits, One month / Number of months a subject was a responder during Months 1 to 3: Abnormal bowel habits, Three months / Number of months a subject was a responder during Months 1 to 3: Abnormal bowel habits, Two months / Number of months a subject was a responder during Months 1 to 3: Abnormal bowel habits, Zero months / Responder rate, adequate relief of IBS symptoms / Responder rate, adequate relief of abdominal pain/discomfort / Responder rate, adequate relief of abnormal bowel habits: monthly LOCF imputation; for Number of subjects who were responders during the 26-week treatment period: Adequate relief of IBS symptoms / Number of subjects who were responders during the 26-week treatment period: Adequate relief of abdominal pain/discomfort / Number of subjects who were responders during the 26-week treatment period: Adequate relief of abnormal bowel habits: observed case
Description: Study S241.3.009 was a Phase III, a double-blind, placebo-controlled, randomized, multinational study to investigate the safety and efficacy of 2 mg TID of cilansetron over 26 weeks in diarrhea-predominant IBS subjects. The study was conducted in 146 multinational study centers. A total of 1307 subjects consented to participate, and 806 subjects were randomized. A total of 792 subjects were analyzed for efficacy and 799 subjects were analyzed for safety. Diagnosis and main criteria for inclusion were IBS subjects satisfying the Rome I criteria (1992); the diarrhea-predominant sub-population of the Rome II criteria; and a minimum abdominal pain/discomfort, stool frequency and consistency determined during the run-in period. Subjects were treated with cilansetron 2 mg tablets given orally TID or matching placebo tablets given orally TID for 26 weeks.
The primary efficacy parameter was the overall response rate for IBS symptoms, based on the weekly question concerning adequate relief of IBS symptoms (abdominal pain/discomfort, abnormal bowel habits) over the 26 weeks period. A responder was a subject who responded “yes” at least 50% of the time during his/her treatment period, with minimum treatment duration of four weeks. The two main secondary efficacy parameters were overall responder rate based on the weekly question on adequate relief of abdominal pain/discomfort and abnormal bowel habits during the 26-week treatment period. The onset of action of cilansetron was also examined using daily diary data (stool frequency, and ratings of urgency and severity) during the initial 8 weeks of trial participation. An additional key secondary efficacy parameter was the number of months (one month equals four weeks) up to six months (24-weeks) that a subject was a responder for IBS symptoms, where a responder was defined as a subject who answered the weekly question with “yes” at least twice for that month. The responder rate for the weekly diary questions on adequate relief at each month and all months, the adequate relief rate, the number of subjects with adequate relief by week, daily diary questions, IBS-QOL scores, and the interruption of activities were also assessed. Safety was evaluated by physical examination, ECG, vital signs, laboratory evaluations, concomitant medications, and AEs.
Studies S24 1.3.OO6, S24 1.3.0 1 1, and S24 1.3.009 used the following efficacy measurements: • The subjects answered the following three questions with “yes” or “no” using a phone diary at the end of each week: • a) During the last week, did you experience adequate relief of your IBS symptoms, such as abdominal pain, abdominal discomfort, abnormal bowel habits? • b) During the last week, did you experience adequate relief of your abdominal pain and/or discomfort? • c) During the last week, did you experience adequate relief of your abnormal bowel habits? • The subjects rated the following symptoms using the phone diary at the end of each day: • abdominal pain/discomfort (five-point scale); • stool consistency (seven-point Bristol Stool Scale); • stool frequency (number of bowel movements each day); • urgency (five-point scale); • straining (yes or no); • feeling of incomplete defecation (yes or no); • bloating or feeling of abdominal distension (five-point scale). • In Studies S241 A006 and S241.3.009, subjects completed the IBS-QOL Survey at Baseline (Day 1) and at the end of treatment. In Study S24 1.3.0 1 1, subjects completed the IBS-QOL Survey at Baseline (Day 1), at the end of the three-month treatment period, and at the end of rerandomized treatment.
In all three pivotal efficacy studies, the primary and main secondary efficacy parameters were based on the weekly diary questions on adequate relief and included the following: • 1. Number of months (one month equals four weeks) that a subject was a responder for the weekly diary questions on adequate relief. […]

[1] = Duration of IBS: >24 months to ≦48 months
[2] = Duration of IBS: >48 months to ≦120 months

Compound: Cc1nccn1C[C@H]1CCc2c(c3cccc4c3n2CCC4)C1=O [Cilansetron, (R)-(−)-4,5,6,8,9,10-hexahydro-10-[(2-methyl-1H-imidazol-1-yl)methyl]-11H-pyrido-[3,2,1-jk]-carbazol-11-one]
- Number of months a subject was a responder during Months 1 to 3: IBS symptoms, One month [1]: 9 (9) n (%)
- Number of months a subject was a responder during Months 1 to 3: IBS symptoms, Three months [1]: 35 (36) n (%)
- Number of months a subject was a responder during Months 1 to 3: IBS symptoms, Two months [1]: 21 (22) n (%)
- Number of months a subject was a responder during Months 1 to 3: IBS symptoms, Zero months [1]: 31 (32) n (%)
- Number of subjects who were responders during the 26-week treatment period: Adequate relief of IBS symptoms [1]: 56 (58) n (%)
- Number of subjects who were responders during the 26-week treatment period: Adequate relief of abdominal pain/discomfort [1]: 60 (63) n (%)
- Number of subjects who were responders during the 26-week treatment period: Adequate relief of abnormal bowel habits [1]: 63 (66) n (%)
- Number of months a subject was a responder during Months 1 to 3: Abdominal pain/discomfort, One month [2]: 21 (16) n (%)
- Number of months a subject was a responder during Months 1 to 3: Abdominal pain/discomfort, Three months [2]: 45 (34) n (%)
- Number of months a subject was a responder during Months 1 to 3: Abdominal pain/discomfort, Two months [2]: 23 (18) n (%)
- Number of months a subject was a responder during Months 1 to 3: Abdominal pain/discomfort, Zero months [2]: 42 (32) n (%)
- Number of months a subject was a responder during Months 1 to 3: Abnormal bowel habits, One month [2]: 19 (15) n (%)
- Number of months a subject was a responder during Months 1 to 3: Abnormal bowel habits, Three months [2]: 51 (39) n (%)
- Number of months a subject was a responder during Months 1 to 3: Abnormal bowel habits, Two months [2]: 26 (20) n (%)
- Number of months a subject was a responder during Months 1 to 3: Abnormal bowel habits, Zero months [2]: 35 (27) n (%)
- Number of months a subject was a responder during Months 1 to 3: IBS symptoms, One month [2]: 16 (12) n (%)
- Number of months a subject was a responder during Months 1 to 3: IBS symptoms, Three months [2]: 46 (35) n (%)
- Number of months a subject was a responder during Months 1 to 3: IBS symptoms, Two months [2]: 28 (21) n (%)
- Number of months a subject was a responder during Months 1 to 3: IBS symptoms, Zero months [2]: 41 (31) n (%)
- Number of subjects who were responders during the 26-week treatment period: Adequate relief of IBS symptoms [2]: 72 (55) n (%)
- Number of subjects who were responders during the 26-week treatment period: Adequate relief of abdominal pain/discomfort [2]: 68 (52) n (%)
- Number of subjects who were responders during the 26-week treatment period: Adequate relief of abnormal bowel habits [2]: 79 (60) n (%)
- Number of months a subject was a responder during Months 1 to 3: Abdominal pain/discomfort, One month (Duration of IBS: >120 months): 15 (21) n (%)
- Number of months a subject was a responder during Months 1 to 3: Abdominal pain/discomfort, Three months (Duration of IBS: >120 months): 22 (31) n (%)
- Number of months a subject was a responder during Months 1 to 3: Abdominal pain/discomfort, Two months (Duration of IBS: >120 months): 15 (21) n (%)
- Number of months a subject was a responder during Months 1 to 3: Abdominal pain/discomfort, Zero months (Duration of IBS: >120 months): 20 (28) n (%)
- Number of months a subject was a responder during Months 1 to 3: Abnormal bowel habits, One month (Duration of IBS: >120 months): 10 (14) n (%)
- Number of months a subject was a responder during Months 1 to 3: Abnormal bowel habits, Three months (Duration of IBS: >120 months): 27 (38) n (%)
- Number of months a subject was a responder during Months 1 to 3: Abnormal bowel habits, Two months (Duration of IBS: >120 months): 14 (19) n (%)
- Number of months a subject was a responder during Months 1 to 3: Abnormal bowel habits, Zero months (Duration of IBS: >120 months): 21 (29) n (%)
- Number of months a subject was a responder during Months 1 to 3: IBS symptoms, One month (Duration of IBS: >120 months): 14 (19) n (%)
- Number of months a subject was a responder during Months 1 to 3: IBS symptoms, Three months (Duration of IBS: >120 months): 23 (32) n (%)
- Number of months a subject was a responder during Months 1 to 3: IBS symptoms, Two months (Duration of IBS: >120 months): 15 (21) n (%)
- Number of months a subject was a responder during Months 1 to 3: IBS symptoms, Zero months (Duration of IBS: >120 months): 20 (28) n (%)
- Number of subjects who were responders during the 26-week treatment period: Adequate relief of IBS symptoms (Duration of IBS: >120 months): 40 (56) n (%)
- Number of subjects who were responders during the 26-week treatment period: Adequate relief of abdominal pain/discomfort (Duration of IBS: >120 months): 41 (57) n (%)
- Number of subjects who were responders during the 26-week treatment period: Adequate relief of abnormal bowel habits (Duration of IBS: >120 months): 42 (58) n (%)
- Number of months a subject was a responder during Months 1 to 3: Abdominal pain/discomfort, One month (Duration of IBS: ≦24 months): 11 (11) n (%)
- Number of months a subject was a responder during Months 1 to 3: Abdominal pain/discomfort, Three months (Duration of IBS: ≦24 months): 55 (57) n (%)
- Number of months a subject was a responder during Months 1 to 3: Abdominal pain/discomfort, Two months (Duration of IBS: ≦24 months): 13 (14) n (%)
- Number of months a subject was a responder during Months 1 to 3: Abdominal pain/discomfort, Zero months (Duration of IBS: ≦24 months): 17 (18) n (%)
- Number of months a subject was a responder during Months 1 to 3: Abnormal bowel habits, One month (Duration of IBS: ≦24 months): 9 (9) n (%)
- Number of months a subject was a responder during Months 1 to 3: Abnormal bowel habits, Three months (Duration of IBS: ≦24 months): 51 (53) n (%)
- Number of months a subject was a responder during Months 1 to 3: Abnormal bowel habits, Two months (Duration of IBS: ≦24 months): 18 (19) n (%)
- Number of months a subject was a responder during Months 1 to 3: Abnormal bowel habits, Zero months (Duration of IBS: ≦24 months): 18 (19) n (%)
- Number of months a subject was a responder during Months 1 to 3: IBS symptoms, One month (Duration of IBS: ≦24 months): 16 (17) n (%)
- Number of months a subject was a responder during Months 1 to 3: IBS symptoms, Three months (Duration of IBS: ≦24 months): 46 (48) n (%)
- Number of months a subject was a responder during Months 1 to 3: IBS symptoms, Two months (Duration of IBS: ≦24 months): 16 (17) n (%)
- Number of months a subject was a responder during Months 1 to 3: IBS symptoms, Zero months (Duration of IBS: ≦24 months): 18 (19) n (%)
- Number of subjects who were responders during the 26-week treatment period: Adequate relief of IBS symptoms (Duration of IBS: ≦24 months): 66 (69) n (%)
- Number of subjects who were responders during the 26-week treatment period: Adequate relief of abdominal pain/discomfort (Duration of IBS: ≦24 months): 70 (73) n (%)
- Number of subjects who were responders during the 26-week treatment period: Adequate relief of abnormal bowel habits (Duration of IBS: ≦24 months): 69 (72) n (%)
- Responder rate, adequate relief of IBS symptoms (Each month of Months 1 to 3): 150 (38) n (%)
- Responder rate, adequate relief of abdominal pain/discomfort (Each month of Months 1 to 3): 159 (40) n (%)
- Responder rate, adequate relief of abnormal bowel habits (Each month of Months 1 to 3): 165 (42) n (%)
- Responder rate, adequate relief of IBS symptoms (Each month of Months 1 to 6): 121 (31) n (%)
- Responder rate, adequate relief of abdominal pain/discomfort (Each month of Months 1 to 6): 133 (34) n (%)
- Responder rate, adequate relief of abnormal bowel habits (Each month of Months 1 to 6): 136 (34) n (%)
- Responder rate, adequate relief of IBS symptoms (Each month of Months 4 to 6): 193 (49) n (%)
- Responder rate, adequate relief of abdominal pain/discomfort (Each month of Months 4 to 6): 202 (51) n (%)
